Results taken from US11266643B2, “Triaryl compounds for treatment of PD-L1 diseases” (CHEMOCENTRYX, INC., priority 2019, dated 2022).

What follows are molecules tested against human PD-L1 (Homo sapiens (Human), UniProt Q9NZQ7) (assay: Enzyme-Linked Immunosorbent Assay (ELISA), PD-1/PD-L1 binding). Conditions: plate-coated human PD-L1, biotinylated Human PD-1, absorbance at 450 nm.
Outline: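 Plates coated with […] human PD-L1 overnight at 4° C, blocked, then 1:5 serial compound dilutions added with human PD-1 […] 0.31 μg/mL for 1 h at 37° C. Bound PD-1 detected with streptavidin-HRP and TMB (20 min, 37° C); absorbance read at 450 nm after H2SO4 stop.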

human PD-L1, sequence (Q9NZQ7 19-239): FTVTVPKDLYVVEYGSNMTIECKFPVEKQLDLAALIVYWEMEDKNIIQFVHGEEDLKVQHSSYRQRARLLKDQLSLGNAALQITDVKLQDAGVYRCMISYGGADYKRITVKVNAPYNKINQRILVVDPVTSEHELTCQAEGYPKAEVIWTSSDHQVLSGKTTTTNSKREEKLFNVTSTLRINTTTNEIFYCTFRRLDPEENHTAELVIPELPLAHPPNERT

IC50 | SMILES
< 10 nM | COc1cc(-c2cccc(-c3cccc(Nc4nccc5nccnc45)c3C)c2Cl)cc(F)c1CN[C@H]1CCOC[C@H]1O [Example 2.114]
< 10 nM | COc1cc(-c2cccc(-c3cccc(Nc4nccc5nccnc45)c3C)c2Cl)cc(F)c1CN[C@@H]1COC[C@@H]1O [Example 2.115]
< 10 nM | COc1cc(-c2cccc(-c3cccc(Nc4nccc5nccnc45)c3C)c2Cl)cc(F)c1CN[C@H]1CCC(=O)NC1 [Example 2.116]
